The format of data set [1] is in vivo, mice. Conditions: for body weight / kidney weight / plasma urea N: mean ± SD. How it is done:
The test of acute toxicity of these novel ligands was carried out as follows. […] The ligand was dissolved in 0.5 to 1.0 ml of saline at pH 7 to 8. After a period of observation, the mice were killed, selected tissues were removed and fixed for histopathological examination,and unusual findings at autopsy were recorded.

A short description of data set [2]: Promoting excretion of 238Pu(IV) in mice by injected ligands (Table 3). The class given is in vivo. Conditions: 30 μmol/kg i.p. From the text:
(§1) Animal studies were completed using methods detailed in Radiation Protection Dosimetry, 1994, 53, 305: P. W. Durbin et al., "In Vivo Chelation of Am(III), Pu(IV), Np(V) and U(VI) in Mice by TREN-(Me-3,2-HOPO)"; Radiation Protection Dosimetry, 1989, 17, 351: P. W. Durbin et al., "Removal of ^238 Pu(IV) from Mice by Polycatechoylate, -Hydroxamate or -Hydroxypyridinonate Ligands"; Radiation Research, 1984, 99, 85: P. W. Durbin et al., "Specific Sequestering Agents for the Actinides . . . "; Radiation Research, 1984, 99, 106: P. W. Durbin et al., "Removal of Pu and Am from Beagles and Mice . . . "; Radiation Research, 1980, 81, 170: R. D. Lloyd et al., and P. W. Durbin et al., "Specific Sequestering Agents for the Actinides . . . ". The foregoing articles are hereby incorporated by reference.
(§2) Radionuclides used in the animal studies came from a variety of sources. The ^238 Pu(IV) citrate and ^241 Am(III) citrate solutions were prepared for animal injection by 8- to 10-fold dilution with 0.14M NaC1 (pH 4) of concentrated stock solutions (0.08M sodium citrate buffer) that had been held in frozen storage at Lawrence Berkeley Laboratory (hereinafter LBL) for several years. [The ^238 Pu(IV) was originally obtained from D. R. Atherton at the University of Utah Radiobiology Laboratory, Salt Lake City. The ^241 Am(III) solution had been obtained many years earlier from the LBL Actinide Chemistry group.]
The novel chelating agents of the present invention were tested for their effectiveness in promoting excretion of ^238 Pu(IV) in mice by injected ligands as follows. Mice, in groups of five, each received an intravenous injection of 1850 Bq^238 Pu(IV) in 0.2 mL of citrate buffer. One hour later, 30 μmol/kg of ligand was injected intraperitoneally in 0.5 mL of saline. The mice were killed 24 hours after the Pu injection, frozen, and dissected after partial thawing. The ^238 Pu in skeleton, soft tissues, and separated excreta was determined by counting the ^234 U L x-rays. […]

The nature of data set [3]: Promoting excretion of 237Np(V) in mice by injected ligands (Table 5). The class given is in vivo. As to conditions: 30 μmol/kg i.p. at 3 to 5 min after actinide i.v.
Description: as §1
The ^237 Np(V) was obtained from J. Bucher of the LBL Actinide Chemistry group as NpO2 Cl in 0.1M HCl. It was diluted to the desired radioactivity concentration in 0.14M NaCl and the pH was adjusted to about 4.5 with NaOH just before use.
(§3) One of the novel chelating agents of the present invention, TREN-Me-3,2-HOPO, was also tested for effectiveness in promoting excretion of ^241 AM(III), ^237 Np(V), and ^232 U(VI) by injection into mice, as follows: Mice, in groups of five, each received an intravenous injection of (a) 1100 Bq of ^241 Am(III) in 0.2 mL of citrate buffer, (b) 150 Bq of ^232 UO2 Cl2 plus 3.6 mg of ^235 UO2 Cl2 in 0.2 mL of saline, or (c) 200 Bq of ^237 NpO2 Cl ([…] of ^237 NPO2 Cl) in 0.2 mL of saline. Three to five minutes later, 30 μmol/kg of TREN-Me-3,2-HOPO was injected intraperitoneally in 0.5 mL of saline. The mice were killed 24 hours after the actinide injection, frozen, and dissected after partial thawing. The skeleton, soft tissues, and separated excreta were radioanalyzed by counting the ^241 Am gamma rays, or the alpha particles emitted by ^237 Np or ^232 U (and its ingrowing daughters). Removal of those actinides from mice by injected TREN-Me-3,2-HOPO is summarized in Table 5, which also includes data for mice similarly treated with CaNa3 -DTPA and for actinide-injected controls. […] The structure of Am(III)-TREN-Me-3,2-HOPO is considered to resemble that of the Gd(III) complexes (see Example 20). Complexation of the fraction of Np(V) that is reduced in vivo to Np(IV) is considered to resemble that of Pu(IV). Complexation of U(VI) is considered to take place through binding to UO2^2+.
(§4) ^a Ligands (30 μmol/kg) i.p. at 3 to 5 min after actinide i.v.;

Data set [4] is described as follows: Promoting excretion of U(VI) in mice by injected ligands (Table 5). The class given is in vivo. As to conditions: 30 μmol/kg i.p. at 3 to 5 min after actinide i.v.
Description: as §1
The ^232 U was obtained from the Isotope Products Laboratory, Burbank, Calif., and ^234,235 U was obtained as U metal from long-held LBL storage. The two U sources were combined and dissolved in 6N HNO3, dried, and redissolved in 0.1N HCl. The daughter radioactivities were removed by elution from a Dowex-50X4 column (22 cm length, 0.7 cm diameter, 1.5 mL min^-1 flow rate) with 3.2N HCl. The U fractions (previously identified by a trial run with ^234,235 U alone) were combined, dried, and redissolved in 0.14M NaCl at pH 5.5.
as §3, §4

Data set [5] in a line: Promoting excretion of 241Am(III) in mice by injected ligands (Table 5). Conditions: 30 μmol/kg i.p. at 3 to 5 min after actinide i.v. The class given is in vivo.
Description: as §1, §2, §3, §4

For data set [6] the following is noted: 30 μmol/kg i.p. at 1 h; reported previously (footnote e); cited from earlier work.
Data set [7] can be described thus: Gd3+ complex stability in aqueous solution. The data set is classed as binding.
[8] abbreviates: protocol I: 100 μmol/kg × 10 daily i.p., 11 d.
Where [9] appears, read: protocol I: 100 μmol/kg × 10 daily i.p., 21 d.
The mark [10] stands for this setting: protocol II: 500 μmol/kg × 2 in 8 h i.p., 11 d.

Entries after “also recorded” stand apart in the source; their conditions may differ. Where two headings read alike, the source gives them in different places.

Consider `Cn1ccc(C(=O)NCCCCNC(=O)c2ccn(C)c(=O)c2O)c(O)c1=O` [4-LI-Me-3,2-HOPO, 1,4-bis[(3-hydroxy-1-methyl-2-oxo-1,2-dihydro-pyridin-4-yl)carboxamido]butane], for which, in data set [1] (protocol IB: 100 μmol/kg, 5 d), the body weight is reported as 85 ± 8 percent control, the kidney weight is given as 190 ± 63 percent control and the “plasma urea N” value was over 2000 percent control. In data set [1] (protocol IB: 100 μmol/kg, 5 d, of 3 mice), the no. of survivors turned out to be 0. Moreover, the “effectiveness of Pu removal, injected (in words)” value in data set [2] is “as effective or more effective than the hexadentate and octadentate chelating agents”.
With `Cn1ccc(C(=O)NCCCCCNC(=O)c2ccn(C)c(=O)c2O)c(O)c1=O` [5-LI-Me-3,2-HOPO, 1,5-bis[(3-hydroxy-1-methyl-2-oxo-1,2-dihydro-pyridin-4-yl)carboxamido]pentane], the “toxicity / mortality (in words)” value in data set [1] (mouse, in vivo) is listed as “low toxicity”. The body weight in data set [1] (setting [8]) is listed as 102 ± 5 percent control; in data set [1] (setting [9]) it was 102 ± 5 percent control; in data set [1] (setting [10]), 99 ± 3 percent control. Further, the kidney weight was found to be 109 ± 14 percent control in data set [1] (setting [8]), 100 ± 4 percent control in data set [1] (setting [9]) and 109 ± 9 percent control in data set [1] (setting [10]). Besides, the “plasma urea N” value in data set [1] (setting [8]) came out at 89 ± 1 percent control; in data set [1] (setting [9]) it was 101 ± 2 percent control; in data set [1] (setting [10]), 98 ± 18 percent control. The no. of survivors in data set [1] (protocol I: 100 μmol/kg × 10 daily i.p., 11 d, of 5 mice) was found to be 5; in data set [1] (protocol I: 100 μmol/kg × 10 daily i.p., 21 d, of 5 mice) it was 5; in data set [1] (protocol II: 500 μmol/kg × 2 in 8 h i.p., 11 d, of 5 (5-LI) or 10 (5-LI-O) mice) it was 5. Besides, the “effectiveness of Pu removal, injected (in words)” value in data set [2] is “as effective or more effective than the hexadentate and octadentate chelating agents”.
As for `O=C(O)CN(CCN(CC(=O)O)CC(=O)O)CCN(CC(=O)O)CC(=O)O` [CaNa3 -DTPA, reference compound], in data set [3], the “Np(V) in liver at 24 h” value was 14 ± 5.7% of injected actinide, the “Np(V) in skeleton at 24 h” value was 40 ± 4.4% of injected actinide, the “Np(V) in soft tissue at 24 h” value is given as 3.5 ± 0.9% of injected actinide and the “Np(V) in whole body at 24 h” value is 58 ± 8.0% of injected actinide. In addition, in data set [3] (pooled), the “Np(V) excreta: feces and GI contents” value is recorded as 1.5% of injected actinide; the “Np(V) excreta: urine 0-24 h” value is recorded as 40% of injected actinide; the “Np(V) in kidneys at 24 h” value was 1.3% of injected actinide. In data set [4], the “U(VI) in kidneys at 24 h” value is recorded as 17 ± 2.8% of injected actinide, the “U(VI) in liver at 24 h” value was 1.0% of injected actinide, the “U(VI) in skeleton at 24 h” value is recorded as 19 ± 3.0% of injected actinide and the “U(VI) in whole body at 24 h” value is listed as 38 ± 0.7% of injected actinide. Further, the “U(VI) combined excreta” value in data set [4] (combined excreta (footnote f)) was 62% of injected actinide. Moreover, in data set [5], the “Am(III) in liver at 24 h” value is reported as 13 ± 1.5% of injected actinide, the “Am(III) in skeleton at 24 h” value is 8.5 ± 0.9% of injected actinide, the “Am(III) in soft tissue at 24 h” value is listed as 1.9 ± 0.3% of injected actinide and the “Am(III) in whole body at 24 h” value is reported as 24 ± 1.3% of injected actinide. Further, in data set [5] (pooled), the “Am(III) excreta: feces and GI contents” value is given as 8.0% of injected actinide; the “Am(III) excreta: urine 0-24 h” value is recorded as 68% of injected actinide; the “Am(III) in kidneys at 24 h” value is reported as 0.4% of injected actinide. For the same molecule, in data set [6], the “238Pu excreta: feces and GI contents” value was 5.1% of injected ^238 Pu; the “238Pu excreta: urine 0-24 h” value is 61% of injected ^238 Pu; the “238Pu in kidneys at 24 h” value is on record as 1.1% of injected ^238 Pu; the “238Pu in liver at 24 h” value is on record as 17 ± 4.0% of injected ^238 Pu. Moreover, in data set [6], the “238Pu in skeleton at 24 h” value was 12 ± 2.3% of injected ^238 Pu, the “238Pu in soft tissue at 24 h” value was 3.5 ± 1.6% of injected ^238 Pu and the “238Pu in whole body at 24 h” value is 33 ± 6.6% of injected ^238 Pu.
As to `CC(=O)N(O)CCCCCNC(=O)CCC(=O)N(O)CCCCCNC(=O)CCC(=O)N(O)CCCCCNC(=O)c1ccn(C)c(=O)c1O` [DFO-Me-3,2-HOPO], in data set [6], the “238Pu excreta: feces and GI contents” value is recorded as 26.4% of injected ^238 Pu; the “238Pu excreta: urine 0-24 h” value is given as 21% of injected ^238 Pu; the “238Pu in kidneys at 24 h” value is on record as 3.0% of injected ^238 Pu; the “238Pu in liver at 24 h” value is listed as 13 ± 3.5% of injected ^238 Pu. Besides, in data set [6], the “238Pu in skeleton at 24 h” value is listed as 17 ± 2.4% of injected ^238 Pu, the “238Pu in soft tissue at 24 h” value is 19 ± 3.0% of injected ^238 Pu and the “238Pu in whole body at 24 h” value is on record as 53 ± 3.4% of injected ^238 Pu.
Take `O=C(NCc1cc(CNC(=O)c2cccc(=O)n2O)cc(CNC(=O)c2cccc(=O)n2O)c1)c1cccc(=O)n1O` [ME-(1,2-HOPO)]: in data set [6], the “238Pu excreta: feces and GI contents” value was 43% of injected ^238 Pu; the “238Pu excreta: urine 0-24 h” value is given as 9.6% of injected ^238 Pu; the “238Pu in kidneys at 24 h” value is reported as 1.8% of injected ^238 Pu; the “238Pu in liver at 24 h” value was 18 ± 6.3% of injected ^238 Pu. Also, in data set [6], the “238Pu in skeleton at 24 h” value is given as 17 ± 2.5% of injected ^238 Pu, the “238Pu in soft tissue at 24 h” value is 10 ± 1.8% of injected ^238 Pu and the “238Pu in whole body at 24 h” value is 47 ± 9.4% of injected ^238 Pu.
For the molecule “Gadolinium (III) Ion Complex with N,N,N,-Tris[(3-hydroxy-1-methyl-2-oxo-1,2-dihydropyridin-4-yl)carboxamidoethyl]-amine [Gd(III)-TREN-3,2-HOPO complex]”, in data set [7], the “pM value for Gd^3+” value is recorded as 19. Also, in data set [7] (aqueous solution), the “formation constant log β110” value was found to be 20.3 and the “stability of the complex (in words)” value is given as “very stable in aqueous solution; also recorded: substantially more stable than any of the Gd^3+ MRI agents in current clinical use”.

(Values after patent publication US5892029A, “3-hydroxy-2(1H)-pyridinone chelating agents” (priority 1997, dated 1999).)
